Reference: patent publication US20240391923A1, “METHIONINE ADENOSYLTRANSFERASE 2A INHIBITOR FOR TREATING MTAP DELETION-TYPE CANCER” (SUZHOU GENHOUSE BIO CO., LTD., priority 2022, published 2024)
Like-named read-outs stand apart in the source and are kept apart here.

Legend:
CYP1A2 = biological target: T1, CYP1A2 (Homo sapiens, UniProt P05177); assay: Cytochrome oxidase P450 inhibition test, CYP1A2; type: in vitro ADME; settings: liver microsome incubation
T1 construct: from tissue; host or cells: liver microsome
T1 sequence (P05177 1-516): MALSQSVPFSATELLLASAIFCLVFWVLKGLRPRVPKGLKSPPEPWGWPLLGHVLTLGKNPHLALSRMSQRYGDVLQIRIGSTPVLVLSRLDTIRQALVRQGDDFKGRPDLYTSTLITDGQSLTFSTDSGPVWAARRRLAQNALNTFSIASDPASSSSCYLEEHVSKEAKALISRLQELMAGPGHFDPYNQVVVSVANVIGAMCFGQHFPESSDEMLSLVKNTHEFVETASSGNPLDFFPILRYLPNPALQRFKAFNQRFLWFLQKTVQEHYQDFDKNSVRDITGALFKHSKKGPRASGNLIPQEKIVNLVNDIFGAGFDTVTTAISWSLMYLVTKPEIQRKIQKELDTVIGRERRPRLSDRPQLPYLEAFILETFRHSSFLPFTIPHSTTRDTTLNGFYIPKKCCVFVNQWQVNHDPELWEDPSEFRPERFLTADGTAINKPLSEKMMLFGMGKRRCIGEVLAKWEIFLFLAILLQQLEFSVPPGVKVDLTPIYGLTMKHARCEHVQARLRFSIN
Procedure: (§1) 100 mM K-Buffer: 9.5 mL of stock solution A was mixed with 40.5 mL of stock solution B, the total volume was adjusted to […] with ultrapure water, and the buffer was titrated to pH 7.4 with KOH or H3PO4. • Starting material A (1 M potassium dihydrogen phosphate): 136.5 g of potassium dihydrogen phosphate in 1 L of water. • Stock B […] in 1 L of water. The test substance powder was prepared into a stock solution with a certain concentration using DMSO or other organic solvents, which was then further diluted using a proper organic solvent. The extracorporeal incubation system for CYP450 enzyme metabolism phenotype study was biochemical reaction of a prepared liver microsome, a redox coenzyme, and an enzyme-specific selective inhibitor in simulated physiological temperature and environment. The concentration of the parent drug or a metabolite thereof in the incubation solution was determined by LC-MS/MS.

[1] = test system: SDMA in HCT116-MTAP-knockout cell line; assay: Cell symmetric dimethylarginine (SDMA) test, In-cell Western, HCT116-MTAP-knockout; type: cell-based; settings: Homo sapiens, 96 h
CYP2D6 = biological target: T2, CYP2D6 (Homo sapiens, UniProt P10635); assay: Cytochrome oxidase P450 inhibition test, CYP2D6; type: in vitro ADME; settings: liver microsome incubation
T2 construct: from tissue; host or cells: liver microsome
T2 sequence (P10635 whole entry): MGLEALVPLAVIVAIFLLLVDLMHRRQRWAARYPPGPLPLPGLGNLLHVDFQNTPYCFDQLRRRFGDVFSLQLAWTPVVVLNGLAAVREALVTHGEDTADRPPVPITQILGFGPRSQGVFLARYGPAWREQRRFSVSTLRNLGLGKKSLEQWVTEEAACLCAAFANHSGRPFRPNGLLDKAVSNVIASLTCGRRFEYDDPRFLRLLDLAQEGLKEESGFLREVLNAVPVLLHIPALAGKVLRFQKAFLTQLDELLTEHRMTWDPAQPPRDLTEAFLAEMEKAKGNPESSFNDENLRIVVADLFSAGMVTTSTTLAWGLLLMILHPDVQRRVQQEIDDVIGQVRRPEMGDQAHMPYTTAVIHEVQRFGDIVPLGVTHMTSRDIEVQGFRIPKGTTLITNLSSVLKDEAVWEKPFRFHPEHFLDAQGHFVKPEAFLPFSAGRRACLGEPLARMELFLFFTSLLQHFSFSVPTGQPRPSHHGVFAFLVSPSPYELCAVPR
Procedure: as §1

[2] = test system: HCT116-MTAP-knockout (−/−) cell strain; assay: Tumor cell proliferation inhibition assay (CellTiter-Glo), HCT116-MTAP-knockout (-/-); type: cell-based; settings: Homo sapiens, 120 h, HCT116-MTAP-knockout (−/−) cells, 5-day treatment
Summary of the method: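 Growth inhibition read as ATP content (CellTiter-Glo) after 5-day compound exposure at 37 °C, 5% CO2. Dosing began 24 h post-seeding, ten 3-fold dilutions starting at 10 μM, alongside a DMSO-treated group.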

hERG potassium current = biological target: T3, hERG potassium current (Homo sapiens, UniProt Q12809); assay: hERG inhibition test (whole-cell patch clamp, Qpatch); type: cell-based; settings: initial concentration 30 μM, 6 concentration points
T3 construct: expressed in transfected cells; host or cells: HEK293, cultured under G418 selection
T3 sequence (Q12809 whole entry): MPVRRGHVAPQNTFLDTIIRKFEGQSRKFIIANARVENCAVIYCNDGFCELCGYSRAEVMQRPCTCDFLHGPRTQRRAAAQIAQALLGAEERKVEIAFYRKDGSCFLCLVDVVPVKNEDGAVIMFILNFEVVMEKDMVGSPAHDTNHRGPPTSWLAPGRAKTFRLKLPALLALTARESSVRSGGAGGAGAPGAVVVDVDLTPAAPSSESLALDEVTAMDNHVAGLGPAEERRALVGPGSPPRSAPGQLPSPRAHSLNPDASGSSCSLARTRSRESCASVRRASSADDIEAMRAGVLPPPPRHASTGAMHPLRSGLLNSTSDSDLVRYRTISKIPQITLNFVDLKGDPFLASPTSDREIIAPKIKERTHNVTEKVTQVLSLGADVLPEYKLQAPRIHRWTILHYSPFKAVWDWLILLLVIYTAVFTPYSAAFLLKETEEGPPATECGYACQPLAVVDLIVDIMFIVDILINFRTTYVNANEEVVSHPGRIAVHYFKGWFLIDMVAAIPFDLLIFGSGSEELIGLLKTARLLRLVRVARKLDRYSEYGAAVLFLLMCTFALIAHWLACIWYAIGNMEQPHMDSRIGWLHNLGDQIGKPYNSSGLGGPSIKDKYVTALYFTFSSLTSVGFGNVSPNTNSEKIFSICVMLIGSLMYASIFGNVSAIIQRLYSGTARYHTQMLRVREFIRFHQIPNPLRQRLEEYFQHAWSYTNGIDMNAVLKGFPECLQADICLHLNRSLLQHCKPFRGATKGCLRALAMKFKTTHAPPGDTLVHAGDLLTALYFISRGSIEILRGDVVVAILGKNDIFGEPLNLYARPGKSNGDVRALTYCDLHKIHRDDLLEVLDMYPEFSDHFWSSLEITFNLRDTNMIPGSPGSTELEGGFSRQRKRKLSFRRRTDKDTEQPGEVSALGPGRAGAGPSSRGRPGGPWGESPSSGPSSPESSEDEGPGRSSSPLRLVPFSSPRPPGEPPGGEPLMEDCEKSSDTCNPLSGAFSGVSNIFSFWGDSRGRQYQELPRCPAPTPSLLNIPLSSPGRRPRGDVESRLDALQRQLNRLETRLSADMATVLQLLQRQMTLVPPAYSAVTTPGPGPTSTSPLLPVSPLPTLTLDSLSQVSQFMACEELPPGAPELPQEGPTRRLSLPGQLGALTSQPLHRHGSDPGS
Procedure: The BEK293 cells were cultured in a DiVEM medium containing […] and 0.8 mg/mL G418 at 37° C. with 5% o CO2. The cells were digested by TrypLE™ Express and centrifuged. The cell density was adjusted to 2×10^6 cells/mL. The cells were gently mixed for 15-20 min using a shaker equilibrated at room temperature, and subjected to patch clamping on a machine. The medium of the prepared cells was replaced with extracellular fluid. The intracellular fluid and the extracellular fluid were taken from the fluid pool, and respectively added to the intracellular fluid pool and the cell and the test substance pool of the QPlate chip. The voltage stimulation of the whole-cell hERG potassium current was recorded by the whole-cell patch clamp, and the test data was collected and stored by Qpatch. The compound was diluted 3-fold at an initial concentration of 30 μM, and 6 concentration points were set, with each drug concentration being set for two administrations over a period of at least 5 min. The current detected in compound-free extracellular fluid for each cell was served as its own control group, and the detection was repeated at least twice independently using two cells per concentration. All electrophysiological experiments were performed at room temperature.
For data analysis, the current acted for each drug concentration and the current of the blank control were standardized
and then the inhibition rate corresponding to each drug concentration was calculated
The mean and standard error were calculated for each concentration, and the half maximal inhibitory concentration of each compound was calculated:
The dose-dependent effect was fitted non-linearly using the above equation, wherein Y represents the inhibition rate, C represents the concentration of the test substance, IC50 is the half maximal inhibitory concentration, and HillSlope represents the Hill coefficient. Curve fitting and calculation of IC50 were performed by Graphpad software.

[3] = Stability test in liver microsomes, rat; type: in vitro ADME, Sprague-Dawley rats; settings: Sprague-Dawley; rat liver microsomes 0.5 mg/mL, 1.0 μM substrate, up to 60 min; read-out: Metabolic half-life in rat liver microsome (T½, min)
[4] = IC50 score class, read-out: Cell 96 h SDMA Inhibition (HCT116-MTAP−/−) (score)
[5] = read-out: Cell 96 h SDMA Inhibition (HCT116-MTAP−/−)
[6] = IC50 score, read-out: Tumor cell 5-day relative growth inhibition (HCT116-MTAP−/−) (nM), score
[7] = IC50 value, read-out: Tumor cell 5-day relative growth inhibition (HCT116-MTAP−/−)

SMILES | IC50 (CYP1A2) [nM] | IC50 [1, 4] [nM] | IC50 [1, 5] [nM] | IC50 (CYP2D6) [nM] | IC50 [2, 6] [nM] | IC50 [2, 7] [nM] | half-life at 1 μM [3] [min] | IC50 (hERG potassium current) [nM]
Cn1cc2c(n1)c(=O)n(-c1cccnc1)c1cc(Cl)ccc21 [Compound B12] | > 10000 | 200 to 1000 | 219 | > 10000 | < 500 | 383 | > 145 | > 30000
O=c1c2n[nH]cc2c2ccc(C(F)(F)F)nc2n1-c1cccnc1 [Compound B178] |  | < 200 | 37.1 |  | < 500 | 59.1 |  | > 30000
Cn1cc2c(n1)c(=O)n(-c1cccc3[nH]ncc13)c1nc(C(F)(F)F)ccc21 [Compound B181] | > 30000 | < 200 | 29 | > 30000 | < 500 | 14.6 | > 145 | > 30000
Cn1cc2c(n1)c(=O)n(-c1ccccc1Cl)c1nc(C(F)(F)F)ccc21 [Compound B182] |  | < 200 | 176 |  | 500 to 2000 | 1860 | 20.4 | 
Cn1cc2c(n1)c(=O)n(-c1cccc3[nH]ncc13)c1cc(Cl)c(F)cc21 [Compound B257] |  | < 200 | 70 |  | < 500 | 27.5 |  | > 30000
Cn1cc2c(n1)c(=O)n(-c1cccc3[nH]ncc13)c1cc(Cl)c(C#N)cc21 [Compound B258] |  | < 200 | 67.6 |  | < 500 | 235 |  | 
Cn1cc2c(n1)c(=O)n(-c1cccnc1C1CC1)c1cc(Cl)c(F)cc21 [Compound B340] |  | < 200 | 12 |  | < 500 | 394 |  | 

Now from value to compound, other results behind:

IC50 (CYP1A2) [nM] | IC50 [1, 4] [nM] | IC50 [1, 5] [nM] | IC50 (CYP2D6) [nM] | IC50 [2, 6] [nM] | IC50 [2, 7] [nM] | half-life at 1 μM [3] [min] | SMILES | IC50 (hERG potassium current) [nM]
> 10000 | < 200 | 10.3 | > 10000 | < 500 | 9.6 |  | Cc1ncccc1-n1c(=O)c2nn(C)cc2c2ccc(C(F)(F)F)nc21 (single isomer, unassigned) [Compound B180] | > 30000
> 10000 | < 200 | 34.9 | > 10000 | < 500 | 12.6 | > 145 | Cn1cc2c(n1)c(=O)n(-c1cccc3[nH]ncc13)c1cc(Cl)ccc21 [Compound B60] | > 40000
 | < 200 | 49.2 |  |  |  | 142 | Cn1cc2c(n1)c(=O)n(-c1cccc(O)c1)c1nc(C(F)(F)F)ccc21 [Compound B148] | > 30000
